# Laboratory results: US20130165368A1, “ANTIMICROBIAL COMPOUNDS” (priority 2010, published 2013)
# Tested on: Enterococcus faecium (VRE) NCTC 12952
# Test: MIC agar dilution, VRE strain 30
# Type: cell-based
# Conditions: 22 hrs
# Protocol: (§1) Molar equivalent concentrations were used to allow comparison between compounds of differing molecular mass. Due to weighing difficulties, any compound in solid form was melted in a water bath prior to dilution. To make ten-times strength concentrations, which takes into account agar dilution, 0.0352 mmol of each compound was weighed into plastic universal bottles and 4 mL of sterile distilled water (SDW) was added. To produce a homogenous emulsion the universals were vortexed; once achieved the emulsions were serial diluted by adding 2 mL to 2 mL of SDW.
# (§2) For every 100 mL of Isosensitest agar (IST) (CM0471; Oxoid, Basingstoke, England), 3.1 g of the IST powder was added to 100 mL SDW (as per manufacturer's instructions) and sterilised for 15 minutes at 121° C. Once sterilised, the molten agar was cooled to 50° C. in a water-bath. Subsequently 4.8 g of CCEY powder (BC2160; Bioconnections, Wetherby, England), also known as Brazier's medium, was added to 100 mL SDW for every 100 mL of agar needed. This was then sterilised for 15 minutes at 121° C. Once sterilised the molten agar was cooled to 50° C. in a water-bath and 4 mL of egg-yolk emulsion (S2073; TCS Biosciences Ltd, Buckingham, United Kingdom) and 1 mL of lysed defibrinated horse blood (HB035; TCS Biosciences Ltd, Buckingham, United Kingdom) were also added for every 100 mL needed. Horse blood lysis is achieved by dilution to half concentration with SDW; when fully lysed the mixture will turn dark red in colour.
# (§3) 18 mL agar was added to each universal and then poured into sterile Petri dishes. This step creates a 1/10 dilution resulting in agar plates of the required strength. Control plates for each set of strains were created by adding 18 mL of agar to 2 mL of SDW.
# (§4) Suspensions of each bacterial species were prepared with a density equal to that of a 0.5 McFarland standard using a densitometer. All suspensions were made using sterile distilled water and fresh 18-20 hour cultures. As a 0.5 McFarland standard contains 1.5×10^8 CFU/mL and the multipoint inoculators applies 1 μL spots of liquid, each bacterial suspension was diluted 1/15 (20 μL suspension to 280 μL sterile distilled water).
# (§5) Bacterial suspensions were prepared from fresh 18-24 hour cultures as previously described. 1 μL of each strain was inoculated onto all 100 agar plates containing a different chemical concentration and the 2 control plates. This was done using a multipoint inoculator which inoculates 20 strains per plate. All plates were incubated for 22 hours at 37° C. in aerobic conditions.
# (§6) Each plate was examined for bacterial growth after 22 and 48 hours, with each being incubated in between examinations. A positive result was recorded as growth of ≧10 colonies. A negative result was recorded as growth of <10 colonies as this is equivalent to 99.9% inhibition. The lowest concentration of chemical that inhibited growth was recorded as the MIC. The results are recorded in Table IV below, where the numbers are quoted in mmol/L.
# (§7) Given the positive performance of the ethoxylates of lauryl alcohol in reducing the MIC for a number of the micro-organisms tested, further MIC testing of Laureth-1 [C12E1] through to Laureth-8 [C12E8] was conducted on each of the following: • 10 strains of vancomycin-resistant enterococci (VRE)—listed in Table V below; and • 20 strains of methicillin-resistant Staphylococcus aureus (MRSA)—listed in Table VI.
# (§8) The alkanol, alkanol derivatives, agar plates, and inocula were all prepared in the same way as described above.
# (§9) The plates were examined in the same manner as described above and the results are recorded in Table VII below, where the numbers are quoted in mmol/L.
row,Structure (SMILES),MIC [µM]
1,"CCCCCCCCCCCCOCCOCCO [L2, Diethylene Glycol Monododecyl Ether]",440

# Same assay, conditions: 48 hrs
row,Structure (SMILES),MIC [µM]
1,"CCCCCCCCCCCCOCCOCCO [L2, Diethylene Glycol Monododecyl Ether]",440

# Tested on: MRSA FRA 920
# Test: MIC agar dilution, MRSA strain 38
# Type: cell-based
# Conditions: Staphylococcus aureus, 22 hrs
# Protocol: as §1, §2, §3, §4, §5, §6, §7, §8, §9
row,Structure (SMILES),MIC [µM]
1,"CCCCCCCCCCCCOCCOCCO [L2, Diethylene Glycol Monododecyl Ether]",110

# Same assay, conditions: Staphylococcus aureus, 48 hrs
row,Structure (SMILES),MIC [µM]
1,"CCCCCCCCCCCCOCCOCCO [L2, Diethylene Glycol Monododecyl Ether]",110

# Tested on: Candida glabrata
# Test: MIC agar dilution, micro-organism 20 (3943)
# Type: cell-based
# Conditions: Nakaseomyces glabratus, 22 h, Candida glabrata 3943; 22 hrs; read-out: MIC
# Outline: (§10)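 Agar dilution in Isosensitest/CCEY agar with egg yolk and lysed horse blood; compounds as aqueous emulsions (myristyl and lauryl alcohol with 1-methyl-2-pyrrolidone and Tween 20). 1 µL spots of 1/15-diluted 0.5 McFarland suspensions, 37 °C aerobic, read at 22 and 48 h; MIC (mmol/L) is lowest concentration giving <10 colonies.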
row,Structure (SMILES),MIC [µM]
1,"CCCCCCCCCCCCOCCOCCO [L2, Diethylene Glycol Monododecyl Ether]",110

# Same assay, conditions: Nakaseomyces glabratus, 48 h, Candida glabrata 3943; 48 hrs; read-out: MIC
row,Structure (SMILES),MIC [µM]
1,"CCCCCCCCCCCCOCCOCCO [L2, Diethylene Glycol Monododecyl Ether]",110

# Tested on: Staphylococcus epidermidis
# Test: MIC agar dilution, micro-organism 14 (11047)
# Type: cell-based
# Conditions: Staphylococcus epidermidis 11047; 22 hrs; read-out: MIC
# Outline: as §10
row,Structure (SMILES),MIC [µM]
1,"CCCCCCCCCCCCOCCOCCO [L2, Diethylene Glycol Monododecyl Ether]",110

# Same assay, conditions: Staphylococcus epidermidis 11047; 48 hrs; read-out: MIC
row,Structure (SMILES),MIC [µM]
1,"CCCCCCCCCCCCOCCOCCO [L2, Diethylene Glycol Monododecyl Ether]",110

# Tested on: MRSA EMRSA 16 03732/95
# Test: MIC agar dilution, MRSA strain 45
# Type: cell-based
# Conditions: Staphylococcus aureus, 22 hrs
# Protocol: as §1, §2, §3, §4, §5, §6, §7, §8, §9
row,Structure (SMILES),MIC [µM]
1,"CCCCCCCCCCCCOCCOCCO [L2, Diethylene Glycol Monododecyl Ether]",110

# Same assay, conditions: Staphylococcus aureus, 48 hrs
row,Structure (SMILES),MIC [µM]
1,"CCCCCCCCCCCCOCCOCCO [L2, Diethylene Glycol Monododecyl Ether]",110

# Tested on: MRSA EMRSA 16 21354/95
# Test: MIC agar dilution, MRSA strain 44
# Type: cell-based
# Conditions: Staphylococcus aureus, 22 hrs
# Protocol: as §1, §2, §3, §4, §5, §6, §7, §8, §9
row,Structure (SMILES),MIC [µM]
1,"CCCCCCCCCCCCOCCOCCO [L2, Diethylene Glycol Monododecyl Ether]",110

# Same assay, conditions: Staphylococcus aureus, 48 hrs
row,Structure (SMILES),MIC [µM]
1,"CCCCCCCCCCCCOCCOCCO [L2, Diethylene Glycol Monododecyl Ether]",110

# Tested on: Enterococcus faecalis (VRE) MB 726
# Test: MIC agar dilution, VRE strain 28
# Type: cell-based
# Conditions: 22 hrs
# Protocol: as §1, §2, §3, §4, §5, §6, §7, §8, §9
row,Structure (SMILES),MIC [µM]
1,"CCCCCCCCCCCCOCCOCCO [L2, Diethylene Glycol Monododecyl Ether]",220

# Same assay, conditions: 48 hrs
row,Structure (SMILES),MIC [µM]
1,"CCCCCCCCCCCCOCCOCCO [L2, Diethylene Glycol Monododecyl Ether]",220

# Tested on: Steptococcus pyogenes
# Test: MIC agar dilution, micro-organism 11 (8306)
# Type: cell-based
# Conditions: 22 h, Steptococcus pyogenes 8306; 22 hrs; read-out: MIC
# Outline: as §10
row,Structure (SMILES),MIC [µM]
1,"CCCCCCCCCCCCOCCOCCO [L2, Diethylene Glycol Monododecyl Ether]",110

# Same assay, conditions: 48 h, Steptococcus pyogenes 8306; 48 hrs; read-out: MIC
row,Structure (SMILES),MIC [µM]
1,"CCCCCCCCCCCCOCCOCCO [L2, Diethylene Glycol Monododecyl Ether]",110

# Tested on: Listeria monocytogenes
# Test: MIC agar dilution, micro-organism 15 (11994)
# Type: cell-based
# Conditions: Listeria monocytogenes 11994; 22 hrs; read-out: MIC
# Outline: as §10
row,Structure (SMILES),MIC [µM]
1,"CCCCCCCCCCCCOCCOCCO [L2, Diethylene Glycol Monododecyl Ether]",220

# Same assay, conditions: Listeria monocytogenes 11994; 48 hrs; read-out: MIC
row,Structure (SMILES),MIC [µM]
1,"CCCCCCCCCCCCOCCOCCO [L2, Diethylene Glycol Monododecyl Ether]",220

# Tested on: Enterococcus faecium (VRE) MB 3137
# Test: MIC agar dilution, VRE strain 26
# Type: cell-based
# Conditions: 22 hrs
# Protocol: as §1, §2, §3, §4, §5, §6, §7, §8, §9
row,Structure (SMILES),MIC [µM]
1,"CCCCCCCCCCCCOCCOCCO [L2, Diethylene Glycol Monododecyl Ether]",> 880

# Same assay, conditions: 48 hrs
row,Structure (SMILES),MIC [µM]
1,"CCCCCCCCCCCCOCCOCCO [L2, Diethylene Glycol Monododecyl Ether]",> 880

# Tested on: Enterococcus casseliflavus (VRE) Clin waste
# Test: MIC agar dilution, VRE strain 23
# Type: cell-based
# Conditions: 22 hrs
# Protocol: as §1, §2, §3, §4, §5, §6, §7, §8, §9
row,Structure (SMILES),MIC [µM]
1,"CCCCCCCCCCCCOCCOCCO [L2, Diethylene Glycol Monododecyl Ether]",220

# Same assay, conditions: 48 hrs
row,Structure (SMILES),MIC [µM]
1,"CCCCCCCCCCCCOCCOCCO [L2, Diethylene Glycol Monododecyl Ether]",220

# Tested on: MRSA EMRSA 15 19972/98
# Test: MIC agar dilution, MRSA strain 39
# Type: cell-based
# Conditions: Staphylococcus aureus, 22 hrs
# Protocol: as §1, §2, §3, §4, §5, §6, §7, §8, §9
row,Structure (SMILES),MIC [µM]
1,"CCCCCCCCCCCCOCCOCCO [L2, Diethylene Glycol Monododecyl Ether]",110

# Same assay, conditions: Staphylococcus aureus, 48 hrs
row,Structure (SMILES),MIC [µM]
1,"CCCCCCCCCCCCOCCOCCO [L2, Diethylene Glycol Monododecyl Ether]",110

# Tested on: Enterococcus faecalis (VRE) PHLS URINE 2000
# Test: MIC agar dilution, VRE strain 21
# Type: cell-based
# Conditions: 22 hrs
# Protocol: as §1, §2, §3, §4, §5, §6, §7, §8, §9
row,Structure (SMILES),MIC [µM]
1,"CCCCCCCCCCCCOCCOCCO [L2, Diethylene Glycol Monododecyl Ether]",220

# Same assay, conditions: 48 hrs
row,Structure (SMILES),MIC [µM]
1,"CCCCCCCCCCCCOCCOCCO [L2, Diethylene Glycol Monododecyl Ether]",220
